From publication PMC7206119, “RIP1 inhibition blocks inflammatory diseases but not tumor growth or metastases” (Cell Death and Differentiation, 2019)

Experiments:
Experiment in all cases: biochemical
LTK = LTK (Homo sapiens, UniProt P29376); set-up: DiscoverX kinase panel, active-site competition binding (KINOMEscan type), percent of control at one concentration; details: competition binding, percent of control
Source text: (§1) To investigate the potential therapeutic benefit of inhibiting RIP1, we developed GNE684 or (S)-N-((S)-7-methoxy-1-methyl-2-oxo-2,3,4,5-tetrahydro-1H-pyrido[3,4-b]azepin-3-yl)-5-phenyl-6,7-dihydro-5H-pyrrolo[1,2-b][1,2,4]triazole-2-carboxamide with cross-species potency against RIP1, exquisite kinase selectivity, and favorable pharmacological properties (Fig. 1a–h, S1, Tables S1 and S2, SI file 1). […] (Fig. 1b, S1, and Table S1). […] GNE684 inhibited human RIP1 potently in vitro, and mouse and rat RIP1 with slightly less potency (Fig. 1d). Accordingly, it inhibited TNF-induced necroptosis in human HT-29, mouse L929, or rat H9c2 cells (Fig. 1e). The cellular potency of GNE684 was confirmed in a human whole blood assay using TBZ ([compound left out], IAP antagonist BV6, and pan-caspase inhibitor zVAD) or LZ (LPS plus zVAD) to trigger necroptosis and the release of IL-1α and IL-1β (Fig. 1f).

DYRK1B = DYRK1B (Homo sapiens, UniProt Q9Y463); set-up: DiscoverX kinase panel, active-site competition binding (KINOMEscan type), percent of control at one concentration; details: competition binding, percent of control
Source text: as §1

STK33 = STK33 (Homo sapiens, UniProt Q9BYT3); set-up: DiscoverX kinase panel, active-site competition binding (KINOMEscan type), percent of control at one concentration; details: competition binding, percent of control
Source text: as §1

MUSK = MUSK (Homo sapiens, UniProt O15146); set-up: Thermo Fisher SelectScreen kinase panel: Z'-LYTE and Adapta activity, LanthaScreen binding
Procedure, shortened: (§2)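 GNE684 profiled at 10 µM across 221 kinases with Z'-LYTE and Adapta activity and LanthaScreen binding formats. Also screened at 10 µM against 468 kinases in KINOMEscan scanMAX binding assay.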

PKC_delta = target: T1, PKC_delta (Homo sapiens, UniProt Q05655); set-up: Thermo Fisher SelectScreen kinase panel: Z'-LYTE and Adapta activity, LanthaScreen binding
T1 construct: gene PRKCD
Procedure, shortened: as §2

CK1_gamma1 = target: T2, CK1_gamma1 (Homo sapiens, UniProt Q9HCP0); set-up: Thermo Fisher SelectScreen kinase panel: Z'-LYTE and Adapta activity, LanthaScreen binding
T2 construct: gene CSNK1G1
Procedure, shortened: as §2

CDK8/cyclinC = CDK8/cyclinC (Homo sapiens, UniProt P49336); set-up: Thermo Fisher SelectScreen kinase panel: Z'-LYTE and Adapta activity, LanthaScreen binding
Procedure, shortened: as §2

EPHA8 = EPHA8 (Homo sapiens, UniProt P29322); set-up: Thermo Fisher SelectScreen kinase panel: Z'-LYTE and Adapta activity, LanthaScreen binding
Procedure, shortened: as §2

PAK3 = PAK3 (Homo sapiens, UniProt O75914); set-up: Thermo Fisher SelectScreen kinase panel: Z'-LYTE and Adapta activity, LanthaScreen binding
Procedure, shortened: as §2

IKK-beta = target: T3, IKK-beta (Homo sapiens, UniProt O14920); set-up: Thermo Fisher SelectScreen kinase panel: Z'-LYTE and Adapta activity, LanthaScreen binding
T3 construct: gene IKBKB
Procedure, shortened: as §2

CK1_gamma2 = target: T4, CK1_gamma2 (Homo sapiens, UniProt P78368); set-up: Thermo Fisher SelectScreen kinase panel: Z'-LYTE and Adapta activity, LanthaScreen binding
T4 construct: gene CSNK1G2
Procedure, shortened: as §2

NEK4 = NEK4 (Homo sapiens, UniProt P51957); set-up: Thermo Fisher SelectScreen kinase panel: Z'-LYTE and Adapta activity, LanthaScreen binding
Procedure, shortened: as §2

MST4 = target: T5, MST4 (Homo sapiens, UniProt Q9P289); set-up: Thermo Fisher SelectScreen kinase panel: Z'-LYTE and Adapta activity, LanthaScreen binding
T5 construct: gene STK26
Procedure, shortened: as §2

Tpl2 = target: T6, Tpl2 (Homo sapiens, UniProt P41279); set-up: Thermo Fisher SelectScreen kinase panel: Z'-LYTE and Adapta activity, LanthaScreen binding
T6 construct: gene MAP3K8
Procedure, shortened: as §2

CDK1/cyclinB = CDK1/cyclinB (Homo sapiens, UniProt P06493); set-up: Thermo Fisher SelectScreen kinase panel: Z'-LYTE and Adapta activity, LanthaScreen binding
Procedure, shortened: as §2

EPHA7 = EPHA7 (Homo sapiens, UniProt Q15375); set-up: Thermo Fisher SelectScreen kinase panel: Z'-LYTE and Adapta activity, LanthaScreen binding
Procedure, shortened: as §2

MLK1 = target: T7, MLK1 (Homo sapiens, UniProt P80192); set-up: Thermo Fisher SelectScreen kinase panel: Z'-LYTE and Adapta activity, LanthaScreen binding
T7 construct: gene MAP3K9
Procedure, shortened: as §2

Rse = target: T8, Rse (Homo sapiens, UniProt Q06418); set-up: Thermo Fisher SelectScreen kinase panel: Z'-LYTE and Adapta activity, LanthaScreen binding
T8 construct: gene TYRO3
Procedure, shortened: as §2

ZAP70 = ZAP70 (Homo sapiens, UniProt P43403); set-up: gene ZAP70; Thermo Fisher SelectScreen kinase panel: Z'-LYTE and Adapta activity, LanthaScreen binding
Description: 5 88 GNE684 was tested in Thermo Fisher Scientific SelectScreen assay (Madison, WI) 89 against 221 representative kinases at a concentration of 10 µM, which is 476-fold greater than the Ki app 90 for GNE684 against human RIP1 in the RIP1 enzyme 91 assay. The kinase assays were carried out using Z'-LYTE and Adapta activity and 92 LanthaScreen binding assays (Thermo Fisher Scientific, Madison WI) following 93 protocols developed and performed by Thermo Fisher Scientific 94 (https://www.thermofisher.com/us/en/home/products-and-services/services/custom-95 services/screening-and-profiling-services/selectscreen-profiling-service/selectscreen-96 kinase-profiling-service.html). 97 GNE684 was also tested against 468 kinases in the KINOMEscan scanMAX kinase 98 binding assay panel at a concentration of 10 µM following protocols developed and 99 performed by DiscoverX (http://www.discoverx.com/kinase_profiling).

MUSK, sequence (O15146 whole entry): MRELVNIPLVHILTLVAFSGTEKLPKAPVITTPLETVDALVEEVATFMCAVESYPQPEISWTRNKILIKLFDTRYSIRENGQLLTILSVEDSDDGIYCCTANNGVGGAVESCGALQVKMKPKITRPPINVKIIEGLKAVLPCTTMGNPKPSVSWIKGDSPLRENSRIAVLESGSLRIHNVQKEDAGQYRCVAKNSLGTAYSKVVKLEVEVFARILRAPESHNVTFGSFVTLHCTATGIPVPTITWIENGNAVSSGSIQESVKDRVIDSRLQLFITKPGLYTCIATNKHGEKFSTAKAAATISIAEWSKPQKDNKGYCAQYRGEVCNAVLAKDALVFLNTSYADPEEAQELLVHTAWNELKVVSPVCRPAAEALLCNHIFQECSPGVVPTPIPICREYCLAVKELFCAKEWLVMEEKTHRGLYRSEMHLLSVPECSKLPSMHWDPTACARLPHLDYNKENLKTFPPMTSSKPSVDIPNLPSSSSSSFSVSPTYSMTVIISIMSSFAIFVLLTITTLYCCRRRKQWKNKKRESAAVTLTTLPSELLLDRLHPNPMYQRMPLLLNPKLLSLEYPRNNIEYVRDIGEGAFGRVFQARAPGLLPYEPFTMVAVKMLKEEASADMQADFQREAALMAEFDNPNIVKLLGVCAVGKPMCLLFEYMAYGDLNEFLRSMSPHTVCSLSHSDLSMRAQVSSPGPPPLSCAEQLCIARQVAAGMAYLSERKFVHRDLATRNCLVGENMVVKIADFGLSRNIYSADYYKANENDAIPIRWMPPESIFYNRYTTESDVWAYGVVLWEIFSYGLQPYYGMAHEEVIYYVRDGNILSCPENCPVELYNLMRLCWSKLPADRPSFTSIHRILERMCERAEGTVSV
EPHA7, sequence (Q15375 whole entry): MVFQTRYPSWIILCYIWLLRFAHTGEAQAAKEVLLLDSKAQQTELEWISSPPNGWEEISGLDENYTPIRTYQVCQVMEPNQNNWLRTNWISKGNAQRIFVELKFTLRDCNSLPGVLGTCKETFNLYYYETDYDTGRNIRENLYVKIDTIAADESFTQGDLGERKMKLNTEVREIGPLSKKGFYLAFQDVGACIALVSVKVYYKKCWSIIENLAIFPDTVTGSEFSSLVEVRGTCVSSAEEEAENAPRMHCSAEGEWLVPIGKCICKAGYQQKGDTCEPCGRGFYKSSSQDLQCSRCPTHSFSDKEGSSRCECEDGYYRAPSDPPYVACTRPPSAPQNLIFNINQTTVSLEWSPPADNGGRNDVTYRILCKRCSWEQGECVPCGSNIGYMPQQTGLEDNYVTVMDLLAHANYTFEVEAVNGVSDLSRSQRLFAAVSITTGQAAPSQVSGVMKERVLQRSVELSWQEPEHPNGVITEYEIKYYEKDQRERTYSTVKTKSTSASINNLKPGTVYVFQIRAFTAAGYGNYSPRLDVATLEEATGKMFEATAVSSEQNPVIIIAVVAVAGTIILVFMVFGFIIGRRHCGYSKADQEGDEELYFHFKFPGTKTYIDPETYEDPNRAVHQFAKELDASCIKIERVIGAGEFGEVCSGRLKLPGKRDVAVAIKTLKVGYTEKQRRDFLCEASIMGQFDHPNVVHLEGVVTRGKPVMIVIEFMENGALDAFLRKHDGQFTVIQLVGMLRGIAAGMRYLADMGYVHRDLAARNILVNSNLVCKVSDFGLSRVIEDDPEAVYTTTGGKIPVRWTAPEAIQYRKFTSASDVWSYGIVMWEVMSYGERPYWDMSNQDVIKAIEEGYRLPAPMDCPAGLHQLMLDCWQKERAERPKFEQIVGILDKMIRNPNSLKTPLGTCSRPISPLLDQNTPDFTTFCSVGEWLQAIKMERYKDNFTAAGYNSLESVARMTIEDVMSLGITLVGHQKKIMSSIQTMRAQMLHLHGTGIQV
CDK1/cyclinB, sequence (P06493 whole entry): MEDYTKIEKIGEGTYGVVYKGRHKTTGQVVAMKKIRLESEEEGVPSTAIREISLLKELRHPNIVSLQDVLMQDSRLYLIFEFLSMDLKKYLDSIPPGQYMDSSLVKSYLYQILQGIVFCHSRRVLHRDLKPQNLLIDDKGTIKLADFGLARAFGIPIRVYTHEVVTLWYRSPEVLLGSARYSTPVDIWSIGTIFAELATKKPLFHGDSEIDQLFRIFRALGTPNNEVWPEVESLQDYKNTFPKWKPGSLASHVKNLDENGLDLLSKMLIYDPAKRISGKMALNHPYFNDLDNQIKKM
CDK1/cyclinB, sequence (P14635 whole entry partner): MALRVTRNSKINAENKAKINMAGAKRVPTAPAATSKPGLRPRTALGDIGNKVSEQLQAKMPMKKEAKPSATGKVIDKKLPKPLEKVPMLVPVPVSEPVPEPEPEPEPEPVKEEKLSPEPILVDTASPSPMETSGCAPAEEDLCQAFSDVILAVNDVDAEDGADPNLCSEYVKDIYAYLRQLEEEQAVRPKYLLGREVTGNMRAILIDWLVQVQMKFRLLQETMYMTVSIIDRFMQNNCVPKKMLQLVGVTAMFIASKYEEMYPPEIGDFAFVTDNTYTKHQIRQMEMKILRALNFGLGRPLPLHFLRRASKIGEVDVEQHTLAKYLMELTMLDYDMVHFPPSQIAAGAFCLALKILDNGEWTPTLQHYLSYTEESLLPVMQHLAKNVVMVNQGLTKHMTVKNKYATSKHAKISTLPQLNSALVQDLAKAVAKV
EPHA8, sequence (P29322 whole entry): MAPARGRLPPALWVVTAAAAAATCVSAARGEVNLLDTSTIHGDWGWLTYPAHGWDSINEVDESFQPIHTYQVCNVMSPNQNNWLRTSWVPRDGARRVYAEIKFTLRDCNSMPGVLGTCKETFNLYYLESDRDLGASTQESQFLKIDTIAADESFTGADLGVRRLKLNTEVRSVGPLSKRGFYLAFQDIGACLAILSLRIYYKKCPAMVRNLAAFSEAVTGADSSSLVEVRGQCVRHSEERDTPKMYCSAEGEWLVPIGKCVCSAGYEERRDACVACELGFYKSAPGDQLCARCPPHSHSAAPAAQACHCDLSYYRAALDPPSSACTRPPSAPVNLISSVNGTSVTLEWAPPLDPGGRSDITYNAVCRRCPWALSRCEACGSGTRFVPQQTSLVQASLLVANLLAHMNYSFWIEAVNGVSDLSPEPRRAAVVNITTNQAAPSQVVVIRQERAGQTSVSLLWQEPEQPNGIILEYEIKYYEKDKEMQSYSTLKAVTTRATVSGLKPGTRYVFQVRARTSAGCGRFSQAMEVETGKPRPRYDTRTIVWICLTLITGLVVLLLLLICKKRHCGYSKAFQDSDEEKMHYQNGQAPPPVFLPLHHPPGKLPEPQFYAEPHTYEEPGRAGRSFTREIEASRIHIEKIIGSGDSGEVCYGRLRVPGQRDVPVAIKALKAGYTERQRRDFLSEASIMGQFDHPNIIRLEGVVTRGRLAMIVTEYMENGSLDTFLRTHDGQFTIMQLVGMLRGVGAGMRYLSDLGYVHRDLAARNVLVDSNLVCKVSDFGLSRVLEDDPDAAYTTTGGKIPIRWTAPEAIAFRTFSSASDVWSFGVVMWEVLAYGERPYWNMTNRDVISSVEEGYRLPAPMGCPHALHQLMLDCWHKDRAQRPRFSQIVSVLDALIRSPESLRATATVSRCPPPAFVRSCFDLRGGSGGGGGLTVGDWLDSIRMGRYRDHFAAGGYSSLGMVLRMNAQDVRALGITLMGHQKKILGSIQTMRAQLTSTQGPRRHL
T4 sequence (P78368 whole entry): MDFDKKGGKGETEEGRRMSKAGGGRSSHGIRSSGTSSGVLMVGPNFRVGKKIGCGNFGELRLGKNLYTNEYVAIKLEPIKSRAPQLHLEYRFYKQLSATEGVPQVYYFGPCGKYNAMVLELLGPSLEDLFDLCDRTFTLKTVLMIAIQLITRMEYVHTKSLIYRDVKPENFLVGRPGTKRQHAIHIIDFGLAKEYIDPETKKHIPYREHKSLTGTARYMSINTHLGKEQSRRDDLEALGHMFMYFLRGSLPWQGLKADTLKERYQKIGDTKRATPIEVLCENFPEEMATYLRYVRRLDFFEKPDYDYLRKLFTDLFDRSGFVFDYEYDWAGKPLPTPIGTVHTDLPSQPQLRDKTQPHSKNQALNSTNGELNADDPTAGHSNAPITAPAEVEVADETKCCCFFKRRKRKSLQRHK
T2 sequence (Q9HCP0 whole entry): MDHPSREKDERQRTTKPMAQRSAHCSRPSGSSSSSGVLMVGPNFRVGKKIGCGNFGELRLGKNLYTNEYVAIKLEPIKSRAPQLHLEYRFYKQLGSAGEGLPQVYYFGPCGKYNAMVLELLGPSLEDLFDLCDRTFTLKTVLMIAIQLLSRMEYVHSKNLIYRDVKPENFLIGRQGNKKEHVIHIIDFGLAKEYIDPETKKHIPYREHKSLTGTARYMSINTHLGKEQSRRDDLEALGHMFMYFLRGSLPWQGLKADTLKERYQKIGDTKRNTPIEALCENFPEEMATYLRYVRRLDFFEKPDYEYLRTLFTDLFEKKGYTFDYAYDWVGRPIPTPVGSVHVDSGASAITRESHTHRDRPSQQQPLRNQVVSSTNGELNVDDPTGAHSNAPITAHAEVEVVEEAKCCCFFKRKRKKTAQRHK
T6 sequence (P41279 whole entry): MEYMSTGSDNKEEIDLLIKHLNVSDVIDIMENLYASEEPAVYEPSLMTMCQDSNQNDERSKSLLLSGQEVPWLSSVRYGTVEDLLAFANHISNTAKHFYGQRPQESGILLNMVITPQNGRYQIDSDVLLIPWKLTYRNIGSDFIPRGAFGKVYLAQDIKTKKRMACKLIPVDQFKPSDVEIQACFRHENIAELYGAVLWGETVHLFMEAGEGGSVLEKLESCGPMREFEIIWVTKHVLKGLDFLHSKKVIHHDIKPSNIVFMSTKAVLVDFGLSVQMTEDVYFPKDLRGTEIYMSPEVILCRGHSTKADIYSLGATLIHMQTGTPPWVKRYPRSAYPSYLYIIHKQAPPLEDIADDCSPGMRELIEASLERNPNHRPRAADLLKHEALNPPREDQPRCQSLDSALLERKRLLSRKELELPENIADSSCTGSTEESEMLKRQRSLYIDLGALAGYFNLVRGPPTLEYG

COc1cc2c(cn1)N(C)C(=O)[C@@H](NC(=O)c1nc3n(n1)[C@H](c1ccccc1)CC3)CC2 [GNE684, (S)-N-((S)-7-methoxy-1-methyl-2-oxo-2,3,4,5-tetrahydro-1H-pyrido[3,4-b]azepin-3-yl)-5-phenyl-6,7-dihydro-5H-pyrrolo[1,2-b][1,2,4]triazole-2-carboxamide]
remaining binding at 10 µM (LTK): 93%
remaining binding at 10 µM (DYRK1B): 54%
remaining binding at 10 µM (STK33): 86%
inhibition at 10 µM (MUSK): 14%
inhibition at 10 µM (PKC_delta): 8%
inhibition at 10 µM (CK1_gamma1): 4%
inhibition at 10 µM (CDK8/cyclinC): 4.5%
inhibition at 10 µM (EPHA8): 5.5%
inhibition at 10 µM (PAK3): 6%
inhibition at 10 µM (IKK-beta): 8.5%
inhibition at 10 µM (CK1_gamma2): 2%
inhibition at 10 µM (NEK4): 4.5%
inhibition at 10 µM (MST4): 3.5%
inhibition at 10 µM (Tpl2): 7%
inhibition at 10 µM (CDK1/cyclinB): -0.5%
inhibition at 10 µM (EPHA7): -4%
inhibition at 10 µM (MLK1): 7.5%
inhibition at 10 µM (Rse): 5%
inhibition at 10 µM (ZAP70): 1%
